Experimental data: patent publication US20230085307A1, “PYRIDAZINONE COMPOUND AND HERBICIDE” (NISSAN CHEMICAL CORPORATION, priority 2019, published 2023)

Experiments:
barnyard grass = test: Test Example 4: herbicidal effect by soil treatment (Table 19, symbol H); assay type: in vivo, barnyard grass (Echinochloa crus-galli); settings: amount of applied herbicide 320 g/ha
Procedure, shortened: (§1)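 Three weeks of greenhouse growth at 25° C. to 30° C. followed a uniform surface spray of water-diluted emulsion at a predetermined herbicide amount. Seeds had been sown beforehand under about 1.5 cm of sterilized diluvial soil. Grading followed criteria set out in an earlier test.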

oval-leafed pondweed [1] = test: Test Example 1: herbicidal activity, application before weed generation under submerged conditions (Table 16, symbol C); assay type: in vivo, oval-leafed pondweed (Monochoria vaginalis); settings: amount of applied herbicide 320 g/ha
Procedure, shortened: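 Alluvial soil was flooded to 4 cm depth, weed seeds were sown mixed and 2.5-leaf rice seedlings were transplanted. On sowing day, the compound's emulsion, diluted in water to a set dose, was applied to the water surface. Plants grew at 25–30 °C and were scored 0–5 after three weeks.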

chickweed [2] = test: Test Example 5: herbicidal effect by foliage application, plastic box (Table 20, symbol P); assay type: in vivo, common chickweed (Stellaria media); settings: for Herbicidal effect by foliage application, P: chickweed: amount of applied herbicide 320 g/ha, foliage application after 14-day growth, evaluated three weeks after application
Procedure, shortened: (§2)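 Plants sown in sterilized diluvial soil and grown 14 days in a greenhouse at 25° C to 30° C, then sprayed on the foliage with the compound's emulsion diluted in water to a predetermined herbicide amount. Injury to weeds and crops scored three weeks after application on a visual rating scale.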

wild oat [3] = test: Test Example 5: herbicidal effect by foliage application, plastic box (Table 20, symbol I); assay type: in vivo, wild oat (Avena fatua); settings: for Herbicidal effect by foliage application, I: wild oat: amount of applied herbicide 320 g/ha, foliage application after 14-day growth, evaluated three weeks after application
Procedure, shortened: as §2

southern crabgrass = test: Test Example 5: herbicidal effect by foliage application, plastic box (Table 20, symbol F); assay type: in vivo, southern crabgrass (Digitaria ciliaris); settings: for Herbicidal effect by foliage application, F: southern crabgrass: amount of applied herbicide 320 g/ha, foliage application after 14-day growth, evaluated three weeks after application
Procedure, shortened: as §2

Japanese bulrush = test: Test Example 2: herbicidal activity, application during weed generation under submerged conditions (Table 17, symbol B); assay type: in vivo, Japanese bulrush (Schoenoplectus juncoides); settings: for herbicidal effect rating, B: Japanese bulrush: AAH 320 g/ha, application during weed generation, submerged conditions
Procedure, shortened: (§3)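 Steps: fill Wagner pots with alluvial soil; add water to give 4 cm depth; sow the species mixed; grow under glass at 25–30° C.; at 1–2 leaves apply water-diluted emulsion formulation to the water surface at a fixed herbicide amount; score after 3 weeks.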

late watergrass = test: Test Example 2: herbicidal activity, application during weed generation under submerged conditions (Table 17, symbol A); assay type: in vivo, late watergrass (Echinochloa oryzicola); settings: for herbicidal effect rating, A: late watergrass: AAH 320 g/ha, application during weed generation, submerged conditions
Procedure, shortened: as §3

windgrass = test: Test Example 4: herbicidal effect by soil treatment (Table 19, symbol L); assay type: in vivo, windgrass (Apera spica-venti); settings: amount of applied herbicide 320 g/ha
Procedure, shortened: as §1

wild oat [4] = test: Test Example 4: herbicidal effect by soil treatment (Table 19, symbol I); assay type: in vivo, wild oat (Avena fatua); settings: amount of applied herbicide 320 g/ha
Procedure, shortened: as §1

oval-leafed pondweed [5] = test: Test Example 2: herbicidal activity, application during weed generation under submerged conditions (Table 17, symbol C); assay type: in vivo, oval-leafed pondweed (Monochoria vaginalis); settings: for herbicidal effect rating, C: oval-leafed pondweed: AAH 320 g/ha, application during weed generation, submerged conditions
Procedure, shortened: as §3

velvetleaf = test: Test Example 4: herbicidal effect by soil treatment (Table 19, symbol M); assay type: in vivo, velvetleaf (Abutilon theophrasti); settings: amount of applied herbicide 320 g/ha
Procedure, shortened: as §1

Italian ryegrass = test: Test Example 4: herbicidal effect by soil treatment (Table 19, symbol K); assay type: in vivo, Italian ryegrass (Lolium multiflorum); settings: amount of applied herbicide 320 g/ha
Procedure, shortened: as §1

lambsquarters = test: Test Example 4: herbicidal effect by soil treatment (Table 19, symbol O); assay type: in vivo, lambsquarters (Chenopodium album); settings: amount of applied herbicide 320 g/ha
Procedure, shortened: as §1

persian speedwell = test: Test Example 4: herbicidal effect by soil treatment (Table 19, symbol R); assay type: in vivo, Persian speedwell (Veronica persica); settings: amount of applied herbicide 320 g/ha
Procedure, shortened: as §1

chickweed [6] = test: Test Example 4: herbicidal effect by soil treatment (Table 19, symbol P); assay type: in vivo, common chickweed (Stellaria media); settings: amount of applied herbicide 320 g/ha
Procedure, shortened: as §1

[7] = foliage application, 320 g/ha, evaluated 3 weeks after application
[8] = application during weed generation under submerged conditions, amount of applied herbicide 320 g/ha

Structure (SMILES)	Herbicidal effect by soil treatment, H: barnyard grass (barnyard grass)	Herbicidal effect, C: oval-leafed pondweed (oval-leafed pondweed [1])	Herbicidal effect by foliage application, P: chickweed (chickweed [2])	Herbicidal effect by foliage application, I: wild oat (wild oat [3])	Herbicidal effect by foliage application, F: southern crabgrass (southern crabgrass)	herbicidal effect rating, B: Japanese bulrush (Japanese bulrush)	herbicidal effect rating, A: late watergrass (late watergrass)	Herbicidal effect by soil treatment, L: windgrass (windgrass)	Herbicidal effect by soil treatment, I: wild oat (wild oat [4])	herbicidal effect rating, C: oval-leafed pondweed (oval-leafed pondweed [5])	Herbicidal effect by soil treatment, M: velvetleaf (velvetleaf)	Herbicidal effect by soil treatment, K: Italian ryegrass (Italian ryegrass)	Herbicidal effect by soil treatment, O: lambsquarters (lambsquarters)	Herbicidal effect by soil treatment, R: persian speedwell (persian speedwell)	Herbicidal effect by soil treatment, P: chickweed (chickweed [6])	H: barnyard grass, herbicidal effect grade (barnyard grass)	L: windgrass, herbicidal effect grade (windgrass)	I: wild oat, herbicidal effect grade (wild oat [4])	M: velvetleaf, herbicidal effect grade (velvetleaf)	K: Italian ryegrass, herbicidal effect grade (Italian ryegrass)	also measured
Cc1nn(C)c(=O)c(-c2c(-c3ccccc3OC(F)(F)F)sc3c(Cl)cccc23)c1O [4-076]	0 (Herbicidal rate of 5% or less (almost no effect))	0 (Herbicidal rate of 5% or less (almost no effect))	5 (Herbicidal rate of 90% or more (almost completely withered))	0 (Herbicidal rate of 5% or less (almost no effect))	1 (Herbicidal rate of 5% or more and less than 20%)	2 (Herbicidal rate of 20% or more and less than 40%)	3 (Herbicidal rate of 40% or more and less than 70%)	0 (Herbicidal rate of 5% or less (almost no effect))	0 (Herbicidal rate of 5% or less (almost no effect))	0 (Herbicidal rate of 5% or less (almost no effect))	2 (Herbicidal rate of 20% or more and less than 40%)	0 (Herbicidal rate of 5% or less (almost no effect))	3 (Herbicidal rate of 40% or more and less than 70%)	3 (Herbicidal rate of 40% or more and less than 70%)	1 (Herbicidal rate of 5% or more and less than 20%)	–	–	–	–	–	–
COc1ccc(-c2sc3c(C)cccc3c2-c2c(O)c(C)nn(C)c2=O)cc1 [4-110]	0 (Herbicidal rate of 5% or less (almost no effect))	4 (Herbicidal rate of 70% or more and less than 90%)	5 (Herbicidal rate of 90% or more (almost completely withered))	0 (Herbicidal rate of 5% or less (almost no effect))	1 (Herbicidal rate of 5% or more and less than 20%)	3 (Herbicidal rate of 40% or more and less than 70%)	0 (Herbicidal rate of 5% or less (almost no effect))	0 (Herbicidal rate of 5% or less (almost no effect))	0 (Herbicidal rate of 5% or less (almost no effect))	5 (Herbicidal rate of 90% or more (almost completely withered))	3 (Herbicidal rate of 40% or more and less than 70%)	5 (Herbicidal rate of 90% or more (almost completely withered))	5 (Herbicidal rate of 90% or more (almost completely withered))	4 (Herbicidal rate of 70% or more and less than 90%)	5 (Herbicidal rate of 90% or more (almost completely withered))	–	–	–	–	–	–
CCSc1ccc(-c2sc3c(C)cccc3c2-c2c(O)c(C)nn(C)c2=O)cc1 [4-124]	3 (Herbicidal rate of 40% or more and less than 70%)	2 (Herbicidal rate of 20% or more and less than 40%)	5 (Herbicidal rate of 90% or more (almost completely withered))	4 (Herbicidal rate of 70% or more and less than 90%)	3 (Herbicidal rate of 40% or more and less than 70%)	0 (Herbicidal rate of 5% or less (almost no effect))	3 (Herbicidal rate of 40% or more and less than 70%)	0 (Herbicidal rate of 5% or less (almost no effect))	0 (Herbicidal rate of 5% or less (almost no effect))	0 (Herbicidal rate of 5% or less (almost no effect))	3 (Herbicidal rate of 40% or more and less than 70%)	4 (Herbicidal rate of 70% or more and less than 90%)	5 (Herbicidal rate of 90% or more (almost completely withered))	4 (Herbicidal rate of 70% or more and less than 90%)	4 (Herbicidal rate of 70% or more and less than 90%)	–	–	–	–	–	–
COc1ccc(-c2sc3cc(Cl)c(Cl)cc3c2-c2c(O)c(C)nn(C)c2=O)cc1 [5-043]	–	0 (Herbicidal rate of 5% or less (almost no effect))	5 (Herbicidal rate of 90% or more (almost completely withered))	0 (Herbicidal rate of 5% or less (almost no effect))	0 (Herbicidal rate of 5% or less (almost no effect))	0 (Herbicidal rate of 5% or less (almost no effect))	2 (Herbicidal rate of 20% or more and less than 40%)	–	–	0 (Herbicidal rate of 5% or less (almost no effect))	–	–	–	–	–	0 (Herbicidal rate of 5% or less (almost no effect))	0 (Herbicidal rate of 5% or less (almost no effect))	0 (Herbicidal rate of 5% or less (almost no effect))	0 (Herbicidal rate of 5% or less (almost no effect))	0 (Herbicidal rate of 5% or less (almost no effect))	O: lambsquarters, herbicidal effect grade (lambsquarters): 0 (Herbicidal rate of 5% or less (almost no effect)); R: persian speedwell, herbicidal effect grade (persian speedwell): 0 (Herbicidal rate of 5% or less (almost no effect)); P: chickweed, herbicidal effect grade (chickweed [6]): 3 (Herbicidal rate of 40% or more and less than 70%)
Cc1ccc2oc(-c3ccc(SC(C)C)cc3)c(-c3c(O)c(C)nn(C)c3=O)c2c1 [9-059]	–	3 (Herbicidal rate of 40% or more and less than 70%)	–	–	–	–	–	–	–	–	–	–	–	–	–	1 (Herbicidal rate of 5% or more and less than 20%)	0 (Herbicidal rate of 5% or less (almost no effect))	0 (Herbicidal rate of 5% or less (almost no effect))	3 (Herbicidal rate of 40% or more and less than 70%)	4 (Herbicidal rate of 70% or more and less than 90%)	P (chickweed) herbicidal effect grade (chickweed [2]; [7]): 5 (Herbicidal rate of 90% or more (almost completely withered)); I (wild oat) herbicidal effect grade (wild oat [3]; [7]): 3 (Herbicidal rate of 40% or more and less than 70%); F (southern crabgrass) herbicidal effect grade (southern crabgrass; [7]): 2 (Herbicidal rate of 20% or more and less than 40%); herbicidal effect grade, B: Japanese bulrush (Japanese bulrush; [8]): 3 (Herbicidal rate of 40% or more and less than 70%); herbicidal effect grade, A: late watergrass (late watergrass; [8]): 4 (Herbicidal rate of 70% or more and less than 90%); herbicidal effect grade, C: oval-leafed pondweed (oval-leafed pondweed [5]; [8]): 4 (Herbicidal rate of 70% or more and less than 90%); O: lambsquarters, herbicidal effect grade (lambsquarters): 5 (Herbicidal rate of 90% or more (almost completely withered)); R: persian speedwell, herbicidal effect grade (persian speedwell): 5 (Herbicidal rate of 90% or more (almost completely withered)); P: chickweed, herbicidal effect grade (chickweed [6]): 5 (Herbicidal rate of 90% or more (almost completely withered))
